In patent US8568745B2, “Water-soluble drug carrier and process for producing the same” (Kyushu University, National University Corporation, priority 2009, dated 2013):

Test: Dispersibility of FITC-DEX-encapsulated S/W with additives
Format: physicochemical
Conditions: additive 125 mg/mL in aqueous phase of S/O/W emulsion
Description: In order to reduce the particle size in S/W, the additives presented in Table 1 were added to the aqueous phase of the S/O/W emulsion during the preparation of S/W, and the dispersibility of each sample was observed.
(2) Cyclohexane (3.0 mL) was added to (1) to obtain an FITC-DEX-encapsulated S/O.
(3) A PC-ER-290-FITC-DEX complex solid was obtained by freeze drying the S/O/W emulsion prepared by agitating the solution of (2) (0.50 mL), and 5.0 mL of an aqueous solution (containing 2.5 mg/mL PC, and each additive at a concentration of 125 mg/mL) in a 12-mL vial container using a homogenizer.
(4) A 0.1 TE buffer (5.0 mL) was added to (3) to obtain an FITC-DEX-encapsulated S/W.

Row | Structure (SMILES) | dispersibility / particle size of FITC-DEX-encapsulated S/W with additive
1 | OCC(O)CO [Glycerine] | relatively small particle sizes
2 | OC[C@@H](O)[C@@H](O)[C@H](O)[C@@H](O)CO [sorbitol] | relatively small particle sizes
3 | OC[C@H]1O[C@H](O[C@H]2O[C@H](CO)[C@@H](O)[C@H](O)[C@H]2O)[C@H](O)[C@@H](O)[C@@H]1O [trehalose] | relatively small particle sizes
